In US8993574B2, “Pyrrole antifungal agents” (F2G Ltd, priority 2008, dated 2015):
≈ marks a conversion by molar mass, not a printed value.

Assays:
Assay type in all cases: cell-based
Candida albicans = test: MIC, RPMI medium; settings: 24-48 h at 35° C., >80% growth inhibition, banded into grades; for MIC: Candida albicans
In short: (§1)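 Minimum inhibitory concentrations were determined in glucose-supplemented (2%) RPMI buffered to pH 7.0 with 0.135 M MOPS. Wells held 1−2×10^4 cfu/mL and compound from 50 to 0.05 mg/L, incubated 24-48 h at 35° C, with >80% growth reduction by OD 485 nm as endpoint.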

Aspergillus terreus AT49 [1] = test: MIC, RPMI medium; settings: for MIC: Aspergillus terreus, AT49, MIC banded into grades, read-out: MIC grade, A. terreus 49; for MIC grade, A. terreus 49: MIC banded into grades
In short: as §1

[2] = system: Aspergillus fumigatus AF293; test: MIC, RPMI medium; settings: for MIC: Aspergillus fumigatus, AF293, MIC banded into grades, read-out: MIC grade, A. fumigatus; for MIC grade, A. fumigatus: MIC banded into grades
In short: as §1

Candida parapsilosis = test: MIC, RPMI medium; settings: 24-48 h at 35° C., >80% growth inhibition, banded into grades; for MIC: Lodderomyces parapsilosis
In short: as §1

Aspergillus niger [3] = test: MIC, RPMI medium; settings: MIC banded into grades; for MIC: Aspergillus niger, read-out: MIC grade, A. niger
In short: as §1

Candida krusei = test: MIC, RPMI medium; settings: 24-48 h at 35° C., >80% growth inhibition, banded into grades; for MIC: Pichia kudriavzevii
In short: as §1

Aspergillus flavus [4] = test: MIC, RPMI medium; settings: MIC banded into grades; for MIC: Aspergillus flavus, read-out: MIC grade, A. flavus
In short: as §1

[5] = system: Aspergillus fumigatus AF210; test: MIC, RPMI medium; settings: for MIC: Aspergillus fumigatus, AF210, MIC banded into grades, read-out: MIC grade, A. fumigatus 210; for MIC grade, A. fumigatus 210: MIC banded into grades
In short: as §1

Aspergillus terreus AT4 [6] = test: MIC, RPMI medium; settings: for MIC: Aspergillus terreus, AT4, MIC banded into grades, read-out: MIC grade, A. terreus; for MIC grade, A. terreus: MIC banded into grades
In short: as §1

Candida glabrata = test: MIC, RPMI medium; settings: 24-48 h at 35° C., >80% growth inhibition, banded into grades; for MIC: Nakaseomyces glabratus
In short: as §1

Candida tropicalis = test: MIC, RPMI medium; settings: 24-48 h at 35° C., >80% growth inhibition, banded into grades; for MIC: Candida tropicalis
In short: as §1

Aspergillus terreus AT49 [7] = test: MIC, YAG medium; settings: 24 h at 35° C, MIC banded into grades; for MIC: Aspergillus terreus, read-out: MIC grade, A. terreus 49
In short: (§2)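 Spores from 5-day Sabouraud agar cultures were suspended in YAG medium (1% glucose, 1% ammonium chloride, 0.5% yeast extract) at final inocula of 1−2×10^4 cfu/mL against doubling dilutions of compound (50-0.05 mg/L; 0.5-0.0005 mg/L on repeat). Plates were incubated 24 h at 35° C. MIC was the lowest concentration giving >70% growth inhibition by OD485 versus drug-free control.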

[8] = system: Aspergillus fumigatus AF293; test: MIC, YAG medium; settings: 24 h at 35° C, MIC banded into grades; for MIC: Aspergillus fumigatus, read-out: MIC grade, A. fumigatus
In short: as §2

Aspergillus niger [9] = test: MIC, YAG medium; settings: 24 h at 35° C, MIC banded into grades; for MIC: Aspergillus niger, read-out: MIC grade, A. niger
In short: as §2

Aspergillus flavus [10] = test: MIC, YAG medium; settings: 24 h at 35° C, MIC banded into grades; for MIC: Aspergillus flavus, 24 h, read-out: MIC grade, A. flavus
In short: as §2

[11] = system: Aspergillus fumigatus AF210; test: MIC, YAG medium; settings: 24 h at 35° C, MIC banded into grades; for MIC: Aspergillus fumigatus, read-out: MIC grade, A. fumigatus 210
In short: as §2

Aspergillus terreus AT4 [12] = test: MIC, YAG medium; settings: 24 h at 35° C, MIC banded into grades; for MIC: Aspergillus terreus, read-out: MIC grade, A. terreus
In short: as §2

Row | MIC (Candida albicans) | MIC (Aspergillus terreus AT49 [1]) | MIC [2] | MIC (Candida parapsilosis) | MIC (Aspergillus niger [3]) | MIC (Candida krusei) | MIC (Aspergillus flavus [4]) | MIC [5] | MIC (Aspergillus terreus AT4 [6]) | MIC (Candida glabrata) | MIC (Candida tropicalis) | MIC (Aspergillus terreus AT49 [7]) | MIC [8] | MIC (Aspergillus niger [9]) | MIC (Aspergillus flavus [10]) | MIC [11] | MIC (Aspergillus terreus AT4 [12]) | Compound | Candida MIC, C. albicans (Candida albicans) | MIC grade, A. terreus 49 (Aspergillus terreus AT49 [1]) | MIC grade, A. fumigatus [2] | also measured
1 | < 1 µg/mL | > 10 µg/mL | > 10 µg/mL | < 1 µg/mL | > 10 µg/mL | 1 to 10 µg/mL (≈ 1.93 to 19.3 µM) | > 10 µg/mL | > 10 µg/mL | > 10 µg/mL | < 1 µg/mL | < 1 µg/mL | 1 to 10 µg/mL (≈ 1.93 to 19.3 µM) | 1 to 10 µg/mL (≈ 1.93 to 19.3 µM) | > 10 µg/mL | > 10 µg/mL | > 10 µg/mL | 1 to 10 µg/mL (≈ 1.93 to 19.3 µM) | COCCn1ccc(CC(C)C)c1C(=O)C(=O)Nc1ccc(N2CCN(c3cc(C)cc(C)n3)CC2)cc1 [Example 68, N-{4-[4-(4,6-Dimethyl-pyridin-2-yl)-piperazin-1-yl]-phenyl}-2-[3-isobutyl-1-(2-methoxy-ethyl)-1H-pyrrol-2-yl]-2-oxo-acetamide] | – | – | – | –
2 | – | – | – | – | – | – | – | – | – | – | – | – | – | – | – | – | – | COC(=O)Cn1ccc(C(C)C)c1C(=O)C(=O)Nc1ccc(N2CCN(c3cc(C)cc(C)n3)CC2)cc1 [Example 88] | 2 (A grade of 2 represents an MIC of from 1 to 10 mg/L) | 1 (a grade of 1 represents an MIC of greater than 10 mg/L) | 3 (A grade of 3 represents an MIC of less than 1 mg/L) | Candida MIC, C. parapsilosis (Candida parapsilosis): 3 (A grade of 3 represents an MIC of less than 1 mg/L); MIC grade, A. niger (Aspergillus niger [3]): 2 (A grade of 2 represents an MIC of from 1 to 10 mg/L); Candida MIC, C. krusei (Candida krusei): 3 (A grade of 3 represents an MIC of less than 1 mg/L); MIC grade, A. flavus (Aspergillus flavus [4]): 1 (a grade of 1 represents an MIC of greater than 10 mg/L); MIC grade, A. fumigatus 210 [5]: 3 (A grade of 3 represents an MIC of less than 1 mg/L); MIC grade, A. terreus (Aspergillus terreus AT4 [6]): 1 (a grade of 1 represents an MIC of greater than 10 mg/L); Candida MIC, C. glabrata (Candida glabrata): 3 (A grade of 3 represents an MIC of less than 1 mg/L); Candida MIC, C. tropicalis (Candida tropicalis): 3 (A grade of 3 represents an MIC of less than 1 mg/L); MIC grade, A. terreus 49 (Aspergillus terreus AT49 [7]): 1 (a grade of 1 represents an MIC of greater than 10 mg/L); MIC grade, A. fumigatus [8]: 3 (A grade of 3 represents an MIC of less than 1 mg/L); MIC grade, A. niger (Aspergillus niger [9]): 2 (A grade of 2 represents an MIC of from 1 to 10 mg/L); MIC grade, A. flavus (Aspergillus flavus [10]): 1 (a grade of 1 represents an MIC of greater than 10 mg/L); MIC grade, A. fumigatus 210 [11]: 3 (A grade of 3 represents an MIC of less than 1 mg/L); MIC grade, A. terreus (Aspergillus terreus AT4 [12]): 2 (A grade of 2 represents an MIC of from 1 to 10 mg/L)
3 | – | – | – | – | – | – | – | – | – | – | – | – | – | – | – | – | – | COC(=O)Cn1ccc(-c2cccs2)c1C(=O)C(=O)Nc1ccc(N2CCN(c3cc(C)cc(C)n3)CC2)cc1 [Example 87, (2-{4-[4-(4,6-Dimethyl-pyridin-2-yl)-piperazin-1-yl]-phenylaminooxalyl}-3-thiophen-2-yl-pyrrol-1-yl)-acetic acid methyl ester] | 2 (A grade of 2 represents an MIC of from 1 to 10 mg/L) | 2 (A grade of 2 represents an MIC of from 1 to 10 mg/L) | 3 (A grade of 3 represents an MIC of less than 1 mg/L) | Candida MIC, C. parapsilosis (Candida parapsilosis): 3 (A grade of 3 represents an MIC of less than 1 mg/L); MIC grade, A. niger (Aspergillus niger [3]): 3 (A grade of 3 represents an MIC of less than 1 mg/L); Candida MIC, C. krusei (Candida krusei): 2 (A grade of 2 represents an MIC of from 1 to 10 mg/L); MIC grade, A. flavus (Aspergillus flavus [4]): 1 (a grade of 1 represents an MIC of greater than 10 mg/L); MIC grade, A. fumigatus 210 [5]: 3 (A grade of 3 represents an MIC of less than 1 mg/L); MIC grade, A. terreus (Aspergillus terreus AT4 [6]): 2 (A grade of 2 represents an MIC of from 1 to 10 mg/L); Candida MIC, C. glabrata (Candida glabrata): 3 (A grade of 3 represents an MIC of less than 1 mg/L); Candida MIC, C. tropicalis (Candida tropicalis): 3 (A grade of 3 represents an MIC of less than 1 mg/L); MIC grade, A. terreus 49 (Aspergillus terreus AT49 [7]): 3 (A grade of 3 represents an MIC of less than 1 mg/L); MIC grade, A. fumigatus [8]: 3 (A grade of 3 represents an MIC of less than 1 mg/L); MIC grade, A. niger (Aspergillus niger [9]): 3 (A grade of 3 represents an MIC of less than 1 mg/L); MIC grade, A. flavus (Aspergillus flavus [10]): 1 (a grade of 1 represents an MIC of greater than 10 mg/L); MIC grade, A. fumigatus 210 [11]: 3 (A grade of 3 represents an MIC of less than 1 mg/L); MIC grade, A. terreus (Aspergillus terreus AT4 [12]): 2 (A grade of 2 represents an MIC of from 1 to 10 mg/L)
4 | 1 to 10 µg/mL (≈ 1.75 to 17.5 µM) | 1 to 10 µg/mL (≈ 1.75 to 17.5 µM) | 1 to 10 µg/mL (≈ 1.75 to 17.5 µM) | < 1 µg/mL | > 10 µg/mL | 1 to 10 µg/mL (≈ 1.75 to 17.5 µM) | 1 to 10 µg/mL (≈ 1.75 to 17.5 µM) | 1 to 10 µg/mL (≈ 1.75 to 17.5 µM) | 1 to 10 µg/mL (≈ 1.75 to 17.5 µM) | < 1 µg/mL | 1 to 10 µg/mL (≈ 1.75 to 17.5 µM) | < 1 µg/mL | < 1 µg/mL | > 10 µg/mL | 1 to 10 µg/mL (≈ 1.75 to 17.5 µM) | < 1 µg/mL | < 1 µg/mL | COCCn1ccc(-c2cccc(Cl)c2)c1C(=O)C(=O)Nc1ccc(N2CCN(c3cc(C)cc(C)n3)CC2)cc1 [Example 70, 2-[3-(3-Chloro-phenyl)-1-(2-methoxy-ethyl)-1H-pyrrol-2-yl]-N-{4-[4-(4,6-dimethyl-pyridin-2-yl)-piperazin-1-yl]-phenyl}-2-oxo-acetamide] | – | – | – | –
